Drawing on patent US20150239889A1, “PYRAZOLOPYRIMIDINE COMPOUND” (MITSUBISHI TANABE PHARMA CORPORATION, priority 2012, published 2015), this text covers IC50 for 53 compounds.

pIC50: −log10 of the molar value. A value given as a limit tells only on which side of the number the result lay.

Test [1] has as its target T1, human HIF-PHD3 (Homo sapiens, UniProt Q9H6Z9).
T1 construct: purchased CrystalGenomics Ltd
The experiment in a line: HIF-PHD inhibition assay (fluorescence polarization), human HIF-PHD3. It is filed as biochemical. The settings on record: 2-oxoglutaric acid 166 μmol/L. In outline: (§1)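 FP readout; enzyme activity = mP post-enzyme − mP pre-enzyme. FAM-labelled probe, ACA spacer.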

Test [2] concerns the target T2, human HIF-PHD2 (Homo sapiens, UniProt Q9GZT9).
T2 construct: purchased CrystalGenomics Ltd
Kind of test: HIF-PHD inhibition assay (fluorescence polarization), human HIF-PHD2. It is filed as biochemical. The settings on record: 2-oxoglutaric acid 3.33 μmol/L. In outline: as §1

T2 sequence (Q9GZT9 2-426 limits assumed): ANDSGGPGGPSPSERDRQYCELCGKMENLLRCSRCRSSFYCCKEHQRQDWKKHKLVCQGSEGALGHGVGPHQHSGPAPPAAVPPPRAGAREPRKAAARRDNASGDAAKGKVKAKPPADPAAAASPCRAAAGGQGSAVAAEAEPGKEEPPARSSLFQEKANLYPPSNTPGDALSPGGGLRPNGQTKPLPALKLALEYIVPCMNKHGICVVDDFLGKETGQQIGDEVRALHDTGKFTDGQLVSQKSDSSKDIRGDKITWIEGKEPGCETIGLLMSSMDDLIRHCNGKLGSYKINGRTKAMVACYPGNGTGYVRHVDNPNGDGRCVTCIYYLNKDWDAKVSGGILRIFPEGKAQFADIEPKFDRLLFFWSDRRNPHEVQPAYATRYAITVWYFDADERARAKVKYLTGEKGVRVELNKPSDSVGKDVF
T1 sequence (Q9H6Z9 whole entry): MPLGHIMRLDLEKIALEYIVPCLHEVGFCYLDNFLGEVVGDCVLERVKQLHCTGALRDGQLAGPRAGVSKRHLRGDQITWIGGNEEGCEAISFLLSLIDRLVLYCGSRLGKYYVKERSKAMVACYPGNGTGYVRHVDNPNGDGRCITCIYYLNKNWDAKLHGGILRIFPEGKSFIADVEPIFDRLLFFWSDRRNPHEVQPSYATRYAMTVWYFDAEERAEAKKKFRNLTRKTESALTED

For the compound `CC(C)C(c1cccc(C(F)(F)F)c1)n1ncc2nc(-n3cc(C(=O)O)cn3)nc(O)c21` (single isomer, unassigned) [Example 363], the negative logarithm of the IC50 (pIC50) in test [1] was 5.89; in test [2], 7.24.
The matching figures for `C[C@@H](c1cc(C(F)(F)F)ccc1C(F)(F)F)n1ncc2nc(-n3cc(C(=O)O)cn3)nc(O)c21` [Example 275]: 6.04 and 6.92.
For `CCC(c1cc(F)cc(F)c1)n1ncc2nc(-n3cc(C(=O)O)cn3)nc(O)c21` (single isomer, unassigned) [Example 333], in that order: 6.49 and 7.34.
Take `CC(C)C(c1cc(F)cc(F)c1)n1ncc2nc(-n3cc(C(=O)O)cn3)nc(O)c21` (single isomer, unassigned) [Example 361]: the negative logarithm of the IC50 (pIC50) in test [1] was 6.12; in test [2], 7.21.
For `O=C(O)c1cnn(-c2nc(O)c3c(cnn3CC3CCC(F)(F)CC3)n2)c1` [Example 143], in that order: 5.92 and 7.82.
For `Cc1nn([C@@H](C)c2cc(F)ccc2F)c2c(O)nc(-n3cc(C(=O)O)cn3)nc12` [Example 453], in that order: 5.82 and 6.60.
For `Cc1cc(Cn2ncc3nc(-n4cc(C(=O)O)cn4)nc(O)c32)c(F)cc1-c1ccccc1F` [Example 103], in that order: 6.66 and 7.74.
Take `CC1CCN(c2ccc(C(C)n3ncc4nc(-n5cc(C(=O)O)cn5)nc(O)c43)cc2)CC1` (racemic) [Example 425]: the pIC50 in test [1] was 6.41; in test [2], 7.32.
In the case of `O=C(O)c1cnn(-c2nc(O)c3c(cnn3C[C@@H]3CCN(c4ccc(C(F)(F)F)cc4)C3)n2)c1` [Example 426], the pIC50 is 6.85 in test [1] and 7.82 in test [2].
For `CC1(C)CCC(n2ncc3nc(-n4cc(C(=O)O)cn4)nc(O)c32)CC1` [Example 386], in that order: 6.08 and 7.42.
The matching figures for `CC1CCCC(n2ncc3nc(-n4cc(C(=O)O)cn4)nc(O)c32)C1` (stereo not shown) [Example 400]: 6.22 and 7.64.
The matching figures for `CC(C)C(c1ccc(F)c(F)c1)n1ncc2nc(-n3cc(C(=O)O)cn3)nc(O)c21` (single isomer, unassigned) [Example 359]: 6.47 and 7.64.
As to `CC1CCCC(n2ncc3nc(-n4cc(C(=O)O)cn4)nc(O)c32)C1` (single isomer, unassigned) [Example 401], the values for the pIC50 in test [1] and in test [2] were 5.92 and 7.32, respectively.
The matching figures for `CCC(CC)Cn1ncc2nc(-n3cc(C(=O)O)cn3)nc(O)c21` [Example 494]: 6.06 and 7.05.
For `C[C@@H](c1ccc(F)c(Cl)c1)n1ncc2nc(-n3cc(C(=O)O)cn3)nc(O)c21` [Example 250], in that order: 6.74 and 7.31.
The matching figures for `CC(C)[C@H]1CC[C@H](C)C[C@H]1n1ncc2nc(-n3cc(C(=O)O)cn3)nc(O)c21` [Example 404]: 6.08 and 7.09.
As to `CC(c1cc(F)cc(Cl)c1)n1ncc2nc(-n3cc(C(=O)O)cn3)nc(O)c21` (single isomer, unassigned) [Example 306], the pIC50 was 6.35 in test [1] and 7.21 in test [2].
For `C[C@H](c1ccc(C(F)(F)F)cc1)n1ncc2nc(-n3cc(C(=O)O)cn3)nc(O)c21` [Example 284], the negative-log IC50 (pIC50) in test [1] is 6.08; in test [2], 6.82.
For `Cc1ccc(C(C)n2ncc3nc(-n4cc(C(=O)O)cn4)nc(O)c32)cc1` (single isomer, unassigned) [Example 292], in that order: 6.23 and 7.41.
For `Cc1cc(C(C)n2ncc3nc(-n4cc(C(=O)O)cn4)nc(O)c32)ccc1F` (stereo not shown) [Example 301], in that order: 6.15 and 7.27.
The matching figures for `C[C@@H](c1ccc(C(F)(F)F)cc1)n1nc(C2CC2)c2nc(-n3cc(C(=O)O)cn3)nc(O)c21` [Example 456]: 6.37 and 7.28.
As to `Cn1nc(Cc2ccccc2)c2nc(-n3cc(C(=O)O)cn3)nc(O)c21` [Example 503], the values for the negative-log IC50 (pIC50) in test [1] and in test [2] were < 5.52 and < 6.52, respectively.
For the compound `O=C(O)c1cnn(-c2nc(O)c3c(cnn3Cc3cccc4ccccc34)n2)c1` [Example 28], the negative logarithm of the IC50 (pIC50) in test [1] is 6.44; in test [2] it was 7.46.
The matching figures for `Cc1cc(C(C2CC2)n2ncc3nc(-n4cc(C(=O)O)cn4)nc(O)c32)ccc1F` (stereo not shown) [Example 376]: 6.11 and 7.14.
For `C[C@@H](c1cccc(C(F)(F)F)c1)n1ncc2nc(-n3cc(C(=O)O)cn3)nc(O)c21` [Example 258], in that order: 6.38 and 7.42.
Consider `CC[C@@H](c1ccc(OC(F)(F)F)c(Cl)c1)n1ncc2nc(-n3cc(C(=O)O)cn3)nc(O)c21` [Example 353], for which the pIC50 is 6.31 in test [1] and 7.85 in test [2].
For `CC1CC(n2ncc3nc(-n4cc(C(=O)O)cn4)nc(O)c32)CC(C)(C)C1` (stereo not shown) [Example 407], in that order: 6.34 and 7.43.
Turning to `Cc1ccccc1[C@H](C)n1ncc2nc(-n3cc(C(=O)O)cn3)nc(O)c21` [Example 265], the negative-log IC50 (pIC50) in test [1] is 6.11; in test [2] it was 6.80.
The matching figures for `CC[C@@H](c1ccc(Cl)c(Cl)c1)n1nc(C)c2nc(-n3cc(C(=O)O)cn3)nc(O)c21` [Example 455]: 6.10 and 7.19.
Regarding `CC(C)[C@@H]1CC[C@@H](C)[C@@H](n2ncc3nc(-n4cc(C(=O)O)cn4)nc(O)c32)C1` [Example 406], the pIC50 in test [1] is 6.17; in test [2] it was 6.77.
The matching figures for `C[C@H](C1CCC(C)(C)CC1)n1ncc2nc(-n3cc(C(=O)O)cn3)nc(O)c21` [Example 383]: 6.24 and 6.96.
For `CCC1CCCC(n2ncc3nc(-n4cc(C(=O)O)cn4)nc(O)c32)C1` (single isomer, unassigned) [Example 414], in that order: 6.09 and 7.48.
For `O=C(O)c1cnn(-c2nc(O)c3c(cnn3C(c3ccc(Cl)cc3)C3CC3)n2)c1` (stereo not shown) [Example 364], in that order: 6.11 and 7.41.
For the compound `CCC(c1cccc(C(F)(F)F)c1)n1ncc2nc(-n3cc(C(=O)O)cn3)nc(O)c21` (stereo not shown) [Example 341], the results for the pIC50 in test [1] and in test [2] were 6.10 and 7.28, respectively.
The matching figures for `Cc1nn(Cc2ccc3ccccc3c2)c2c(O)nc(-n3cc(C(=O)O)cn3)nc12` [Example 445]: 6.40 and 7.70.
For `COc1cccc(OCCCn2ncc3nc(-n4cc(C(=O)O)cn4)nc(O)c32)c1` [Example 186], in that order: 6.37 and 7.70.
For `C[C@@H](c1cccc(Cl)c1F)n1ncc2nc(-n3cc(C(=O)O)cn3)nc(O)c21` [Example 279], in that order: 6.25 and 6.92.
As for `CCC(c1cc(F)cc(F)c1)n1ncc2nc(-n3cc(C(=O)O)cn3)nc(O)c21` (stereo not shown) [Example 332], the pIC50 was 6.26 in test [1] and 7.35 in test [2].
For `CC(C)[C@H]1CC[C@@H](n2ncc3nc(-n4cc(C(=O)O)cn4)nc(O)c32)CC1` [Example 390], in that order: 6.18 and 7.55.
In the case of `COc1cc(-c2ccccc2F)ccc1Cn1ncc2nc(-n3cc(C(=O)O)cn3)nc(O)c21` [Example 90], the negative logarithm of the IC50 (pIC50) in test [1] is 7.44; in test [2], 7.70.
For `C[C@@H](c1cc(Cl)cc(C(F)(F)F)c1)n1ncc2nc(-n3cc(C(=O)O)cn3)nc(O)c21` [Example 269], in that order: 6.43 and 7.38.
For `C[C@@H](c1cccc(Cl)c1)n1ncc2nc(-n3cc(C(=O)O)cn3)nc(O)c21` [Example 253], in that order: 6.22 and 7.15.
For `CC(C)C(C(C)C)n1ncc2nc(-n3cc(C(=O)O)cn3)nc(O)c21` [Example 489], in that order: 6.05 and 6.82.
Take `CCC(c1ccc(C)cc1)n1ncc2nc(-n3cc(C(=O)O)cn3)nc(O)c21` (stereo not shown) [Example 328]: the negative-log IC50 (pIC50) is 6.28 in test [1] and 7.22 in test [2].
For `C[C@@H](c1ccc(OC(F)(F)F)cc1)n1ncc2nc(-n3cc(C(=O)O)cn3)nc(O)c21` [Example 276], in that order: 6.42 and 7.82.
As to `CC[C@@H](c1ccc(F)c(C)c1)n1ncc2nc(-n3cc(C(=O)O)cn3)nc(O)c21` [Example 344], the pIC50 in test [1] is 6.28; in test [2], 7.60.
For `CC1CC(n2ncc3nc(-n4cc(C(=O)O)cn4)nc(O)c32)CC(C)(C)C1` (stereo not shown) [Example 409], in that order: 6.38 and 7.31.
For `C[C@@H](c1ccc(F)cc1Cl)n1ncc2nc(-n3cc(C(=O)O)cn3)nc(O)c21` [Example 252], in that order: 6.20 and 7.00.
The matching figures for `C[C@@H](c1ccc(F)c(F)c1)n1ncc2nc(-n3cc(C(=O)O)cn3)nc(O)c21` [Example 251]: 6.33 and 7.26.
Consider `CCC(c1ccc(F)cc1)n1ncc2nc(-n3cc(C(=O)O)cn3)nc(O)c21` (stereo not shown) [Example 324], for which the figures for the negative logarithm of the IC50 (pIC50) in test [1] and in test [2] were 6.19 and 7.02, respectively.
The matching figures for `CC(c1ccc(F)c(C(F)(F)F)c1)n1ncc2nc(-n3cc(C(=O)O)cn3)nc(O)c21` (stereo not shown) [Example 303]: 6.21 and 7.11.
Turning to `Cc1cc(C)cc(C(C)n2ncc3nc(-n4cc(C(=O)O)cn4)nc(O)c32)c1` (single isomer, unassigned) [Example 310], the pIC50 in test [1] is 6.33; in test [2] it was 7.24.
The matching figures for `C[C@H](c1cc(Cl)cc(C(F)(F)F)c1)n1ncc2nc(-n3cc(C(=O)O)cn3)nc(O)c21` [Example 268]: 6.05 and 7.00.
